Drawing on patent US11447487B2, “Spiroheptanyl hydantoins as rock inhibitors” (BRISTOL-MYERS SQUIBB COMPANY, priority 2017, dated 2022), this text covers IC50 for 28 molecules.

The target in this experiment is ROCK2 (Homo sapiens (Human), UniProt O75116). Nature of the experiment: ROCK assay (Caliper LABCHIP peptide phosphorylation). Type of experiment: biochemical. Particulars: 5 μM ATP, 1.5 μM peptide substrate. The protocol: The effectiveness of compounds of the present invention as ROCK inhibitors can be determined in a 30 μL assay containing 20 mM HEPES, pH 7.5, 20 mM MgCl2, 0.015% Brij-35, 4 mM DTT, 5 μM ATP and 1.5 μM peptide substrate (FITC-AHA-AKRRRLSSLRA-OH) (SEQ ID No. 1). Compounds were dissolved in DMSO so that the final concentration of DMSO was <2%, and the reaction was initiated with Rho kinase variants. After incubation, the reaction was terminated by the addition of EDTA and the phosphorylated and non-phosphorylated peptides separated using a LABCHIP® 3000 Reader (Caliper Life Sciences). […] Compounds were tested in dose-response format, and the inhibition of kinase activity was calculated at each concentration of compound. The inhibition data were fit using a curve-fitting program to determine the IC50; i.e., the concentration of compound required to inhibit 50% of kinase activity. Representative Examples were tested in the ROCK assay described above and found having ROCK inhibitory activity. A range of ROCK inhibitory activity (IC50 values) of ≤50 μM (50000 nM) was observed. Table A below lists the ROCK IC50 values measured for the following examples.
Sequence of ROCK2 (O75116 whole entry, species assumed): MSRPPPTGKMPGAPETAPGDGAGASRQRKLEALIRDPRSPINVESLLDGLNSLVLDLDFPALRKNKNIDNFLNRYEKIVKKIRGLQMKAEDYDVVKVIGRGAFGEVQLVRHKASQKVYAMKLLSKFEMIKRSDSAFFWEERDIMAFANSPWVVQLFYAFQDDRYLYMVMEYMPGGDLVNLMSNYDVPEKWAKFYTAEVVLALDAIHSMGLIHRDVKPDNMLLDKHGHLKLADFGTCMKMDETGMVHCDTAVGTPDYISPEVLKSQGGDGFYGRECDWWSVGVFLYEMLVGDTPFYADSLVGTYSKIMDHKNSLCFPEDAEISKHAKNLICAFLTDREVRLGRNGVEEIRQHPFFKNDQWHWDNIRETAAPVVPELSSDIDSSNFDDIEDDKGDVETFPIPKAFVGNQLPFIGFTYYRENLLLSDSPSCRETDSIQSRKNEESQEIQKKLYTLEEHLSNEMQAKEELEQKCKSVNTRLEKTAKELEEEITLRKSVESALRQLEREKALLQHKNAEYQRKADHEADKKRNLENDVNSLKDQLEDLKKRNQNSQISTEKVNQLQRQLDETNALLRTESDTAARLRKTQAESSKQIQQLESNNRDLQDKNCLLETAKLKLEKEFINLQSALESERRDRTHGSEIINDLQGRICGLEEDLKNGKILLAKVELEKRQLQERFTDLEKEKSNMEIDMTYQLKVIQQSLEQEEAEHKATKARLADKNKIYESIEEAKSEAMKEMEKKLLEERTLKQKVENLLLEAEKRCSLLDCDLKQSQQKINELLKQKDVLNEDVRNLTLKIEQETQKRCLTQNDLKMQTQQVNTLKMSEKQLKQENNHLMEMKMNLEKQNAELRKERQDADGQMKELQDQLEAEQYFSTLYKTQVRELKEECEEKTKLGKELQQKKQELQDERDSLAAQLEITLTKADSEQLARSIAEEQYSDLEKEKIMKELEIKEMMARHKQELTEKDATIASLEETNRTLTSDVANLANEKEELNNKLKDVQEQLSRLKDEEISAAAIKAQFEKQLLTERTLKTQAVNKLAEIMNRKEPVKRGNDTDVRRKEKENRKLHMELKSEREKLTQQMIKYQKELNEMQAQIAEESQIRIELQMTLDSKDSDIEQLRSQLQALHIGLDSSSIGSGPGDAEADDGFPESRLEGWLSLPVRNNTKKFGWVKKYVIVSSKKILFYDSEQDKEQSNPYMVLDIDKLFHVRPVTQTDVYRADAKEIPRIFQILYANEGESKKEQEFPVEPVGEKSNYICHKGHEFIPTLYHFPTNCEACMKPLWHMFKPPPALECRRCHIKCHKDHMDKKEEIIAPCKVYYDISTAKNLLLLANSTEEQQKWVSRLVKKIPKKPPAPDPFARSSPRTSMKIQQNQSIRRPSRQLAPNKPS

What is called IC50 is the concentration at which inhibition is half-maximal. Read a high IC50 as a need for much substance. In the case of `CC(C)(C)OCC1NC(=O)N([C@H]2C[C@@]3(C[C@H](Oc4ncccc4C(N)=O)C3)C2)C1=O` (stereo partly shown) [Example 9, 2-{[(αR)-6-(4-tert-butoxymethyl-2,5-dioxoimidazolidin-1-yl)spiro[3.3]-heptan-2-yl]oxy}-pyridine-3-carbox-amide], half-maximal inhibition (IC50) required 219 nM.

`NC(=O)c1cccnc1OC1CC2(C1)CC(N1C(=O)CN(c3ccccc3OC(F)F)C1=O)C2` (stereo not shown) [Example 81, 2-(((αR)-6-(3-(2-(difluoromethoxy)phenyl)-2,5-dioxoimidazolidin-1-yl)spiro[3.3]heptan-2-yl)oxy)nicotinamide] yielded an IC50 of 3 nM. As for `NC(=O)c1cccnc1OC1CC2(C1)CC(N1C(=O)CN(c3ccccc3)C1=O)C2` (stereo not shown) [Example 3, 2-{[6-(2,5-dioxo-3-phenylimidazol-idin-1-yl)spiro-[3.3]heptan-2-yl]-oxy}pyridine-3-carboxamide], the figure is 9 nM; as for `NC(=O)c1cccnc1O[C@H]1C[C@]2(C1)C[C@H](N1C(=O)CN(c3ccc(C(F)(F)F)cc3)C1=O)C2` (stereo partly shown) [Example 87, 2-(((αR)-6-(2.5-dioxo-3-(4-(trifluoromethyl)phenyl)imidazolidin-1-yl)spiro[3.3]heptan-2-yl)oxy)nicotinamide], 5 nM. As for `NC(=O)c1cccnc1O[C@H]1C[C@]2(C1)C[C@H](N1C(=O)N[C@@H](CCOCc3ccccc3)C1=O)C2` (stereo partly drawn) [Example 33, 2-{[(αR)-6-[(4S)-4-[2-(benzyloxy)-ethyl]-2,5-dioxo-imidazolidin-1-yl]-spiro[3.3]heptan-2-yl]oxy}pyridine-3-carboxamide], the figure is 426 nM. As for `CC(C)(C)C[C@@H]1NC(=O)N([C@H]2C[C@@]3(C[C@H](Oc4ncccc4C(N)=O)C3)C2)C1=O` (stereo partly drawn) [Example 25, 2-{[(αR)-6-[(4S)-4-(2,2-dimethyl-propyl)-2,5-dioxo-imidazolidin-1-yl]-spiro[3.3]heptan-2-yl]oxy}pyridine-3-carboxamide], the figure is 10 nM; as for `CC(C)(C)OC(=O)NCCC1NC(=O)N([C@H]2C[C@@]3(C[C@H](Oc4ncccc4C(N)=O)C3)C2)C1=O` (single isomer, unassigned) [Example 21, tert-butyl N-(2-{2,5-dioxo-1-[(αR)-6-[(3-carbamoylpyridin-2-yl)oxy]spiro-[3.3]heptan-2-yl]-imidazolidin-4-yl}ethyl)carbamate], 2380 nM; as for `CCCC[C@@H]1NC(=O)N([C@H]2C[C@@]3(C[C@H](Oc4ncccc4C(N)=O)C3)C2)C1=O` (stereo partly drawn) [Example 28, 2-{[(αR)-6-[(4S)-4-butyl-2,5-dioxo-imidazolidin-1-yl]spiro[3.3]heptan-2-yl]oxy}pyridine-3-carboxamide], 57 nM.

In the case of `CS(=O)(=O)c1cccc(N2CC(=O)N([C@H]3C[C@@]4(C[C@H](Oc5ncccc5C(N)=O)C4)C3)C2=O)c1` (stereo partly shown) [Example 89, 2-(((αR)-6-(3-(3-(methylsulfonyl)phenyl)-2,5-dioxoimidazolidin-1-yl)spiro[3.3]heptan-2-yl)oxy)nicotinamide], the IC50 was found to be 13 nM. The result for `NC(=O)c1cccnc1O[C@H]1C[C@]2(C1)C[C@H](N1C(=O)CN(c3ccc(Oc4ccccc4)cc3)C1=O)C2` (stereo partly shown) [Example 83, 2-(((αR)-6-(2,5-dioxo-3-(4-phenoxyphenyl)imidazolidin-1-yl)spiro[3.3]heptan-2-yl)oxy)nicotinamide] reads 9 nM; that for `NC(=O)c1cccnc1OC1CC2(C1)CC(N1C(=O)CN(Cc3ccccc3)C1=O)C2` (stereo not shown) [Example 10, 2-{[6-(3-benzyl-2,5-dioxoimidazol-idin-1-yl)spiro-[3.3]heptan-2-yl]-oxy}pyridine-3-carboxamide], 224 nM; that for `CC[C@H](C)[C@H]1CC(=O)N([C@H]2C[C@@]3(C[C@H](Oc4ncccc4C(N)=O)C3)C2)C(=O)N1` (stereo partly drawn) [Example 75, 2-{[(αR)-6-[(4R)-4-[(2S)-butan-2-yl]-2,6-dioxo-1,3-diazinan-1-yl]-spiro[3.3]heptan-2-yl]oxy}pyridine-3-carboxamide], 138 nM. `C/C(=C\c1ccccc1)CC1NC(=O)N([C@H]2C[C@@]3(C[C@H](Oc4ncccc4C(N)=O)C3)C2)C1=O` (stereo partly shown) [Example 90, 2-(((αR)-6-(4-((E)-2-methyl-3-phenylallyl)-2,5-dioxoimidazolidin-1-yl)spiro[3.3]heptan-2-yl)oxy)nicotinamide] showed a half-maximal inhibitory concentration (IC50) of 21 nM. Compared with the last molecule, the IC50 is about 6.6-fold lower. `NC(=O)c1cccnc1O[C@H]1C[C@]2(C1)C[C@H](N1C(=O)NC(CC3CCCCC3)C1=O)C2` (single isomer, unassigned) [Example 2, 2-{[(αR)-6-[4-(cyclohexyl-methyl)-2,5-dioxoimidazol-idin-1-yl]spiro-[3.3]heptan-2-yl]-oxy}pyridine-3-carboxamide] had an IC50 of 8 nM. This IC50 is about 2.6-fold lower than that of the molecule before. `NC(=O)c1cccnc1O[C@H]1C[C@]2(C1)C[C@H](N1C(=O)NC(CCOC(F)(F)F)C1=O)C2` (single isomer, unassigned) [Example 59, 2-{[(αR)-6-{2,5-dioxo-4-[2-(trifluoromethoxy)-ethyl]imidazolidin-1-yl}spiro[3.3]-heptan-2-yl]oxy}-pyridine-3-carbox-amide] gave an IC50 of 303 nM.

In turn, `CC(C)(O)CCC1NC(=O)N([C@H]2C[C@@]3(C[C@H](Oc4ncccc4C(N)=O)C3)C2)C1=O` (stereo partly shown) [Example 62, 2-{[(αR)-6-[4-(3-hydroxy-3-methyl-butyl)-2,5-dioxo-imidazolidin-1-yl]-spiro[3.3]heptan-2-yl]oxy}pyridine-3-carboxamide] registered a 50% inhibitory concentration (IC50) of 421 nM. The result for `NC(=O)c1cccnc1O[C@H]1C[C@]2(C1)C[C@H](N1C(=O)NC(Cc3ccncc3)C1=O)C2` (stereo partly shown) [Example 73, 2-{[(αR)-6-{2,5-dioxo-4-[(pyridin-4-yl)methyl]-imidazolidin-1-yl}-spiro[3.3]heptan-2-yl]oxy}pyridine-3-carboxamide] reads 2280 nM; that for `CCC(CC)CC1NC(=O)N([C@H]2C[C@@]3(C[C@H](Oc4ncccc4C(N)=O)C3)C2)C1=O` (single isomer, unassigned) [Example 48, 2-{[(αR)-6-[4-(2-ethylbutyl)-2,5-dioxoimidazolidin-1-yl]spiro[3.3]-heptan-2-yl]oxy}-pyridine-3-carbox-amide], 56 nM. Molecule `CC(C)CC1NC(=O)N([C@H]2C[C@@]3(C[C@H](Oc4ncccc4C(N)=O)C3)C2)C1=O` (stereo partly shown) [Example 44, 2-{[(αR)-6-[4-(2-methylpropyl)-2,5-dioxoimidazolidin-1-yl]spiro[3.3]-heptan-2-yl]oxy}-pyridine-3-carbox-amide] showed an IC50 of 29 nM. The result for `[H][C@]1(Oc2ncccc2C(N)=O)C[C@]2(C[C@@H](N3C(=O)NC(CC(C)Cc4ccccc4)C3=O)C2)C1` (stereo partly drawn) [Example 91, 2-(((aR)-6-(4-(2-methyl-3-phenylpropyl)-2,5-dioxoimidazolidin-1-yl)spiro[3.3]heptan-2-yl)oxy)nicotinamide] reads 29 nM; that for `NC(=O)c1cccnc1O[C@H]1C[C@]2(C1)C[C@H](N1C(=O)NC(CCC3CCCCCC3)C1=O)C2` (single isomer, unassigned) [Example 43, 2-{[(αR)-6-[4-(2-cycloheptylethyl)-2,5-dioxoimidazol-idin-1-yl]spiro-[3.3]heptan-2-yl]-oxy}pyridine-3-carboxamide], 23 nM. As for `NC(=O)c1cccnc1O[C@H]1C[C@]2(C1)C[C@H](N1C(=O)N[C@@H](CC3CC3)C1=O)C2` (stereo partly drawn) [Example 26, 2-{[(αR)-6-[(4S)-4-(cyclopropyl-methyl)-2,5-dioxo-imidazolidin-1-yl]-spiro[3.3]heptan-2-yl]oxy}pyridine-3-carboxamide], the figure is 38 nM; as for `[H][C@]1(Oc2ncccc2C(N)=O)C[C@]2(C[C@@H](N3C(=O)NCC(CC(C)C)C3=O)C2)C1` (stereo partly shown) [Example 79], 131 nM.

As for `CC(C)CN1C(=O)C(=O)N([C@H]2C[C@@]3(C[C@H](Oc4ncccc4C(N)=O)C3)C2)C1=O` (stereo partly shown) [Example 67, 2-{[(αR)-6-[3-(2-methylpropyl)-2,4,5-trioxo-imidazolidin-1-yl]-spiro[3.3]heptan-2-yl]oxy}pyridine-3-carboxamide], the half-inhibitory concentration (IC50) amounted to 1780 nM.

On to `NC(=O)c1cccnc1O[C@H]1C[C@]2(C1)C[C@H](N1C(=O)NC(CCC(F)(F)F)C1=O)C2` (stereo partly shown) [Example 49, 2-{[(αR)-6-[2,5-dioxo-4-(3,3,3-trifluoropropyl)-imidazolidin-1-yl]-spiro[3.3]heptan-2-yl]oxy}pyridine-3-carboxamide], for which the IC50 was 99 nM. As for `C[C@@H](C[C@@H]1NC(=O)N([C@H]2C[C@@]3(C[C@H](Oc4ncccc4C(N)=O)C3)C2)C1=O)C(F)(F)F` (stereo partly drawn) [Example 93, 2-(((αR)-6-((S)-2,5-dioxo-4-((S)-3,3,3-trifluoro-2-methylpropyl)imidazolidin-1-yl)spiro[3.3]heptan-2-yl)oxy)nicotinamide], the figure is 9 nM; as for `CC(C)(O)CC1NC(=O)N([C@H]2C[C@@]3(C[C@H](Oc4ncccc4C(N)=O)C3)C2)C1=O` (stereo partly shown) [Example 58, 2-{[(αR)-6-[4-(2-hydroxy-2-methyl-propyl)-2,5-dioxo-imidazolidin-1-yl]-spiro[3.3]heptan-2-yl]oxy}pyridine-3-carboxamide], 289 nM; as for `NC(=O)c1cccnc1O[C@H]1C[C@]2(C1)C[C@H](N1C(=O)N[C@@H](CC(F)(F)F)C1=O)C2` (stereo partly drawn) [Example 32, 2-{[(αR)-6-[(4S)-2,5-dioxo-4-(2,2,2-trifluoroethyl)-imidazolidin-1-yl]-spiro[3.3]heptan-2-yl]oxy}pyridine-3-carboxamide], 156 nM.
